According to patent publication US20080075796A1, “Compositions and Methods for Controlling Insects” (TyraTech, Inc., priority 2003, published 2008):

Experiments:
Format in all cases: in vivo
[1] = tested on: head lice Pediculus humanus capitus; assay: Pesticidal effect on head lice (LT100); settings: about 1 ml in dish, about 10 adult head lice
Procedure: (§1) Live adult head lice Pediculus humanus capitus are collected from female and male children between the age of about 4 and 11 living in the Karmos area, Alexandria, Egypt. The insects are collected using fine-toothed louse detector comb and pooled together. The collected lice are kept in dishes and used in the studies within about 30 minutes of their collection.
(§2) Various concentrations of the compositions being tested are prepared in water To allow the pesticidal effect of these compositions to be compared to that of a commercially available lice-killing agent, ivermectin, is dissolved in water. About 1 ml of each concentration of the compositions are applied to a dish, about 1 ml of the ivermectin solution is applied to a dish, and about 1 ml of water is applied to a control dish. About 10 adult head lice are introduced to each dish.
(§3) Treated and control dishes are kept under continuous observation and LT100 is observed. LT refers to the time required to kill a given percentage of insects; thus, LT100 refers to the time required to kill 100% of the lice. Head lice is considered dead if no response to a hard object is found.

[2] = tested on: head lice Pediculus humanus capitus; assay: Pesticidal effect on head lice; settings: time to kill 100% of the lice, dissolved in water
Procedure: as §1, §2, §3

red ants = assay: Repellent effect on red ants (visits to treated paper disk); settings: for number of trips by red ants to treated paper disk: 100%
Procedure: Repellent effect of various compositions containing plant essential oils on red ants is tested in the following manner. A paper disk is treated with about 200 μl of each composition and placed in a dish. An untreated paper disk is placed in a control dish. Also, a paper disk is treated with about 200 μl 100% DEET and placed in a dish to compare the repellant effect of the compositions to that of DEET. Red ants are introduced into each dish. Insect behavior and number of visits to the treated paper disk are monitored for about 5 minutes. The number of visits by a red ant to the paper disk is recorded.
Residuality, with regard to pesticidal effect and repellent effect, is tested by treating a paper disk with the composition being tested, keeping the treated paper disk under laboratory conditions for a predetermined period of time (e.g., 0 min, 6 hours, 1 day, 3 days, 5 days, 7 days), and exposing red ants to the treated paper disk in the above described manners.

Carpenter ants [3] = assay: Repellent effect on carpenter ants (treated filter paper); settings: DEET in concentrations of about 5 to 10%
Procedure: (§4) Adult insect are randomly selected for testing the repellent effect of compositions and are not individually marked. About 5 insects per replicate are used. About 3 replicates are used for each treatment. Untreated control tests are included with only solvent (acetone) application to an equal sized population/replications, held under identical conditions. A filter paper (about 80 cm^2) is treated with the composition (about 100 mg in […] acetone). After about 3 min of air drying, the filter paper is placed in a dish and repellency against insects is performed. Insects are released to the dish, one insect at a time at the far end of the dish. Using one or more stopwatches, the time spent on either the filter paper or the untreated surface of the dish is recorded up to about 300 seconds. Repellency ratio (RR) is calculated as follows: RR=[(time on control surface−time on treated surface)/total time of test]. If RR>0 then the composition is considered to have a repellant effect, that is to say, an effect, wherein more insects are repelled away from treated surface than the control surface; if RR<0 then the composition is considered not to have a repellant effect.
The repellent effect of various plant essential oils is tested by treating a filter paper with the test oils. […] The repellency is determined as described above, in Example 14. […]

Carpenter ants [4] = assay: as above
Procedure: as §4
The repellent effect of various plant essential oils is tested by treating a filter paper with the test oils. After about five minutes at room temperature, the paper is placed in a dish and ants are introduced one at a time. The repellency is determined as described above, in Example 14. Oils are tested alone. Additionally, oils are mixed to form compositions, which are then tested.
For purposes of comparison to the repellent effect of various compositions made of various plant essential oils, the repellency of an insect control agent, the commercial repellent 29% DEET, which may be purchased under the name, REPEL® (Wisconsin Pharmacal Company, Inc, Jackson, Wyo.), is measured against Carpenter ants by treating a filter paper with the 29% DEET. After about five minutes at room temperature, the paper is placed in a dish and ants are introduced one at a time. The repellency is determined as described above, in Example 14.
The repellent effect of commercial repellent DEET and various plant essential oils is tested by treating a filter paper with the test oils. After about five minutes at room temperature, the paper is placed in a dish and ants are introduced one at a time. The repellency is determined as described above, in Example 14. Oils are tested alone. Additionally, oils are mixed to form compositions, which are then tested.

For ivermectin [listing 1 of 2 here], the “LT100 (time required to kill 100% of the lice)” value [1] was 5 min.
In the case of ivermectin [listing 2 of 2 here], the LT100 [2] is reported as 5 min.
For CCN(CC)C(=O)c1cccc(C)c1 [DEET], the “number of trips by the red ants to the treated paper disks” value (“number of trips by the red ants” for short) (red ants; 0 min after treatment of disk) was 0, the “residuality of repellent effect” value (red ants; 100% DEET, in words) was “begins to loose potency after 1 day” and the “number of trips by red ants to treated paper disk” value (from here on “number of trips by red ants”) (red ants; 0 min after treatment, about 5 minutes observation) was 0. The “number of trips by red ants” value (red ants; 6 hours after treatment) was 0, the “number of trips by red ants” value (red ants; 1 day after treatment) was 1 and the “number of trips by red ants” value (red ants; 3 days after treatment) was 2. For the same compound, the “number of trips by red ants” value (red ants; 5 days after treatment) was 2, the “number of trips by red ants” value (red ants; 7 days after treatment) was 2 and the “number of trips by the red ants” value (red ants; 6 hours after treatment of disk) was 0. The “number of trips by the red ants” value (red ants; 1 day after treatment of disk) was 1, the “number of trips by the red ants” value (red ants; 3 days after treatment of disk) was 2 and the “number of trips by the red ants” value (red ants; 5 days after treatment of disk) was 2. For the same compound, the “number of trips by the red ants” value (red ants; 7 days after treatment of disk) was 2, the repellency (Carpenter ants [3]) was “no signs of repellency” and the “Sec on T” value (Carpenter ants [4]; 5% DEET, Day 0) was 282 (10) Sec. The “Sec on T” value (Carpenter ants [4]; 10% DEET, Day 0) was 260 (6) Sec, the “sec. on T surface” value (Carpenter ants [4]; 29% DEET (REPEL), Day 0) was 02.4 s and the repellency (Carpenter ants [4]; DEET about 5 to 10%, in words) was “no signs of repellency”.
